Legend:
HRas^G12V [1] = biological target: T1, HRas^G12V (Homo sapiens (Human), UniProt P01112, G12V); experiment: 19F DLB (ligand-observed 19F NMR) score; format: binding; set-up: scale not given here
Outline: (§1)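 In the T2-CPMG experiment, echo spacing was 1 ms and total delays ranged over eight values from 1 to 800 ms. Both scores come from 600 MHz NMR of 50 μM HRas G12V mixed with fragment pools at 240 μM each, in phosphate buffer pH 7.4 with NaCl, MgCl2 and TCEP-d16. Ligand-observed 19F spectra were recorded with 1H decoupling, 64 scans and a 5 s relaxation delay.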

HRas^G12V [2] = biological target: T1, HRas^G12V; experiment: 19F T2-CPMG NMR score; format: binding
Outline: as §1

HRas^G12V [3] = biological target: T1, HRas^G12V; experiment: Overall binding/activity in the various assays (NMR consensus binding)
Procedure: Since the fragment library was curated using phosphate buffer, 25 mM sodium phosphate pH 7.4, 150 mM NaCl, 5 mM MgCl2, 1 mM TCEP-d16, 10% D2O Fresh TCEP was used for experiments. Screening was performed using ^1H-decoupled 1D ^19F experiment Bruker experiment (zgfhigqn.2) with 64 scans and a relaxation delay of 5 seconds. 50 μM HRas^G12V and 240 μM of each fragment in pools (mixtures) were used.
Hit confirmation was performed using the same ^19F experiment as the screen. Ligand-observed 1D ^1H, protein-observed 1D ^1H, ^1H T2-CPMG as well as Saturation Transfer Difference (STD) experiments were also run on the same samples. Ligand-observed 1D ^1H was run using the standard Bruker sequence with excitation sculpting (zgesgp) with a relaxation delay of 10 seconds and 16 scans per spectrum. Protein-observed 1D ^1H was performed using the same sequence with a relaxation delay of 1 second and 256 scans in order to increase the signal-to-noise of the protein resonances, while keeping the experimental time relatively short. The ^1H T2-CPMG experiment employed a modified version of the Bruker 1D ^1H zgesgp experiment with the addition of a CPMG pulse train after the first 90° excitation pulse. Total duration for each spin echo was fixed at 1 ms (τ=500 μs), while the number of echoes in the pulse train was varied according to the total time (T). The number of scans for each spectrum was 4 and eight delay times were run on each sample, ranging from 1 ms to 800 ms.
STD experiments consisted of two independent spectra with offsets of 0 ppm (on resonance) and −20 ppm (off resonance). […] 160 scans were acquired for each spectrum.
The results obtained with the compounds in the various assays described above are depicted in Table 21.
Because of its power to probe the intrinsically weak interactions (Kd) between targets and low-molecular weight fragments, NMR fragment-based lead discovery (FBLD) is a very useful biophysical method in early stage drug discovery, especially for challenging target proteins; including those with shallow binding pockets. Since FBLD screens are performed using low-molecular weight compounds (fragments) with lower structural complexity, the same chemical space can be covered using a smaller number of drug-like fragments versus use of large libraries of higher-molecular weight lead-like compounds as in high throughput screening (HTS) campaigns. Therefore, FBLD has a much higher hit rate than HTS using only several hundred to several thousand compounds in comparison with approximately 1 million compounds for HTS. Also, the small size of the compounds screened in FBLD means a better chance to fully match the interactions with small or transient pockets within the target protein, where these less tractable pockets cannot be accessed with standard classical HTS methods. […] We expect this methodology to be more advantageous than classical HTS methods for expediting the time from hit to lead (H2L) and allows for rapid access to high quality leads with lower attrition rates in subsequent lead optimization (LO) campaigns toward pre-clinical candidate selection. FBLD screening by NMR involves a “consensus binding” approach where several distinct NMR experiments (DLB, STD, CPMG) are applied along with a free-state aggregation detection method (T2-CPMG) to rank the compounds for their affinity to the receptor (HRAS in this case) whilst simultaneously monitoring the solution behavior and critical quality attributes of each compound. The latter helps to eliminate artifact binders which are highly problematic. We performed a fluorine screen involving 461 compounds that were derived from a highly curated fragment library. Moreover, two-dimensional ^15N HSQC NMR was also used to validate ligand-binding sites on the target protein. In addition, we employed protein-detected biophysical measurements were employed to determine fragment binding affinities to the target protein (Kd) by HSQC NMR. […]

T1 sequence (P01112 1-166 G12V): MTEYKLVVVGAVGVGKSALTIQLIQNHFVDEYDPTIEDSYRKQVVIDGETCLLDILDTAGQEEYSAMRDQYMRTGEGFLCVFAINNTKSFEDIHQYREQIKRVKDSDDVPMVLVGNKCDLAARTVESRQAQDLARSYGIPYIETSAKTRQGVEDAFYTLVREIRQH

Structure (SMILES) | 19F DLB Score (HRas^G12V [1]) | 19F T2-CPMG Score (HRas^G12V [2]) | Binding to HRas^G12V (in words) (HRas^G12V [3])
CC(=O)N1CCC[C@@H]1C(=O)NCCc1c[nH]c2cc(F)ccc12 [Compound 10044] | 1.07 | 0.95 | low or no binding
CC(=O)N1CCC[C@H]1C(=O)NCCc1c[nH]c2cc(F)ccc12 [Compound 10045] | 1.1 | 1.13 | low or no binding
O=S(=O)(NCCc1c[nH]c2cc(F)ccc12)c1ccc(F)cc1 [Compound 10046] | 1.02 | 0.79 | low or no binding
Fc1ccc2c(CCNCCc3c[nH]c4cc(F)ccc34)c[nH]c2c1 [Compound 10047, Bis(2-(6-fluoro-1H-indol-3-yl)ethyl)amine] | 1.19 | 3.38 | low or no binding
CC(C)(C(=O)N1CCC1)c1c[nH]c2cc(F)ccc12 [Compound 10049, 1-(azetidin-1-yl)-2-(6-fluoro-1H-indol-3-yl)-2-methylpropan-1-one] | 1.43 | 3.53 | low or no binding
O=C(NCCc1c[nH]c2cc(F)ccc12)C1CCOC1 (stereo not drawn) [Compound 10063] | 1.1 | 2.82 | low or no binding
CCN(CC)CC(=O)NCCc1c[nH]c2cc(F)ccc12 [Compound 10064] | 1.16 | 1.74 | low or no binding
O=C(Cc1c[nH]c2ccccc12)Nc1ccc(F)cc1 [Compound 10067] | 1.2 | 2.15 | low or no binding
Cc1[nH]c2cc(F)ccc2c1CC(=O)N1CCC1 [Compound 10077, 1-(azetidin-1-yl)-2-(6-fluoro-2-methyl-1H-indol-3-yl)ethan-1-one] | 0.96 | 0.41 | low or no binding
CCOC(=O)[C@@H](NC(=O)Cc1c[nH]c2cc(F)ccc12)C(C)C [Compound 10079, Ethyl (2-(6-fluoro-1H-indol-3-yl)acetyl)valinate] | 1.23 | 2.25 | low or no binding
COCC(=O)Nc1cccc(NC(=O)Cc2c[nH]c3cc(F)ccc23)c1 [Compound 10080, 2-(6-fluoro-1H-indol-3-yl)-N-(3-(2-methoxyacetamido)phenyl)acetamide] | 2.67 | −1.66 | low or no binding
CS(=O)(=O)NCCC(=O)NCCc1c[nH]c2cc(F)ccc12 [Compound 10082, N-(2-(6-fluoro-1H-indol-3-yl)ethyl)-3-(methylsulfonamido)propanamide] | 1.22 | 2.61 | low or no binding
CCOC(=O)C(CC(C)C)NC(=O)Cc1c[nH]c2cc(F)ccc12 (stereo not drawn) [Compound 10093] | 1.35 | 4.89 | low or no binding
CCOC(=O)C(Cc1ccccc1)NC(=O)Cc1c[nH]c2cc(F)ccc12 (stereo not drawn) [Compound 10096] | 1.14 | 2.11 | low or no binding
CCOC(=O)C(Cc1ccc(O)cc1)NC(=O)Cc1c[nH]c2cc(F)ccc12 (stereo not drawn) [Compound 10098] | 1.38 | 5.94 | low or no binding
CCOC(=O)C(CC(N)=O)NC(=O)Cc1c[nH]c2cc(F)ccc12 (stereo not drawn) [Compound 10101] | 1.12 | 1.74 | low or no binding
CCOC(=O)C(Cc1c[nH]cn1)NC(=O)Cc1c[nH]c2cc(F)ccc12 (stereo not drawn) [Compound 10104] | 1.14 | 2.49 | low or no binding

Next, values leading:

19F DLB Score (HRas^G12V [1]) | 19F T2-CPMG Score (HRas^G12V [2]) | Binding to HRas^G12V (in words) (HRas^G12V [3]) | Structure (SMILES)
1.22 | 2.95 | low or no binding | CCOC(=O)CNC(=O)Cc1c[nH]c2cc(F)ccc12 [Compound 10050]
1.07 | 1.59 | low or no binding | CC(C)(CNC(=O)Cc1c[nH]c2cc(F)ccc12)C(=O)O [Compound 10062]
1.46 | 5.56 | low or no binding | O=C(Cc1c[nH]c2cc(F)ccc12)N[C@H]1CCOC1 [Compound 10070]
1.35 | 4.49 | low or no binding | O=C(Cc1c[nH]c2cc(F)ccc12)N[C@@H]1CCOC1 [Compound 10071]
1.17 | 2.3 | low or no binding | CC(=O)N1CCC[C@H](NC(=O)Cc2c[nH]c3cc(F)ccc23)C1 [Compound 10073, (S)—N-(1-acetylpiperidin-3-yl)-2-(6-fluoro-1H-indol-3-yl)acetamide]
1.23 | 3.48 | low or no binding | CC(=O)N1CCC[C@@H](NC(=O)Cc2c[nH]c3cc(F)ccc23)C1 [Compound 10074]
1.14 | 2.8 | low or no binding | C[C@@H](NC(=O)Cc1c[nH]c2cc(F)ccc12)C(=O)O [Compound 10083]
1.09 | 1.7 | low or no binding | C[C@H](NC(=O)Cc1c[nH]c2cc(F)ccc12)C(=O)O [Compound 10084]
1.46 | 7.82 | low or no binding | CC(=O)N1CC[C@@H](NC(=O)Cc2c[nH]c3cc(F)ccc23)C1 [Compound 10092, (R)—N-(1-acetylpyrrolidin-3-yl)-2-(6-fluoro-1H-indol-3-yl) acetamide]
1.06 | 2.65 | low or no binding | O=C(O)C1CCN1C(=O)Cc1c[nH]c2cc(F)ccc12 (stereo not drawn) [Compound 10102, 1-(2-(6-fluoro-1H-indol-3-yl)acetyl) azetidine-2-carboxylic acid]
1.2 | 2.44 | low or no binding | CCOC(=O)C(CO)NC(=O)Cc1c[nH]c2cc(F)ccc12 (stereo not drawn) [Compound 10105]
1.34 | 5.72 | low or no binding | O=C(O)CN1CCC(NC(=O)Cc2c[nH]c3cc(F)ccc23)CC1 [Compound 10108, 2-(4-(2-(6-fluoro-1H-indol-3-yl)acetamido)piperidin-1-yl)acetic acid]
1.29 | 2.55 | low or no binding | O=C(O)C1CN(C(=O)Cc2c[nH]c3cc(F)ccc23)C1 [Compound 10113, 1-(2-(6-fluoro-1H-indol-3-yl)acetyl) azetidine-3-carboxylic acid]

From patent US20240408064A1, “RAS INHIBITORS, COMPOSITIONS AND METHODS OF USE THEREOF” (GENETOLEAD INC., priority 2021, published 2024)
